This is an account of results in patent US20110263647A1 (AMGEN INC., priority 2009, published 2011).

Read-outs that look alike come from different tables or passages of the source.

Series [1] can be described thus: In vivo pharmacokinetics, IV and oral gavage. The arrangement: species or system male Sprague-Dawley rats. As to conditions: rat. The method, then: In vivo pharmacokinetic parameters were determined by measuring systemic plasma exposure in male Sprague-Dawley rats (Charles River Laboratories or Taconic, Oxnard, Calif.) by intravenous administration (N=3 fed rats: 2 mg/kg tail vein injection in DMSO) and oral gavage (N=3 fasted rats: 5 mg/kg in 1% Tween 80-2% HPMC-97% deionized water-pH 2.0 vehicle) (Comparative Example 18′ was only dosed IV and at 0.5 mg/kg). DMSO was obtained from Mallinckrodt Inc.; Tween 80 was obtained from Croda; HPMC is Methocel E50 Premium LV, obtained from Dow Excipients. Following oral administration, blood was drawn (250 μL) at 0.25, 0.5, 1, 2, 4, 6, 8, 12, and 16 hours. Following iv administration, blood was drawn (250 μL) at 0.083, 0.25, 0.5, 1, 2, 4, 6, 8, and 16 hours. Blood samples were drawn using a Culex® In Vivo Sampling System (BASi) and collected in BD Microtainer® tubes containing Lithium Heparin (BD). Plasma was obtained by centrifugation of blood at 14000 g and 2-8° C. for five minutes using an Eppendorf 5417R Centrifuge System. Plasma samples were mixed with 2× volume of acetonitrile (Sigma-Aldrich, St. Louis, Mo.). The mixture was stirred briefly using a vortex mixer and then centrifuged at 2867 g for 5 minutes in a Beckman Coulter Allegra 25R equipped with a Type S5700 rotor. The supernatant was removed and diluted 2× with mobile phase A (5/94.9/0.1 v/v/v MeOH/water/AcOH). Plasma concentrations were determined using liquid chromatography/tandem mass spectrometry, with electrospray ionization (ESI) and multiple reaction monitoring in the positive ion mode (Sciex API 3000 mass spectrometer connected to a Shimadzu LC-20AD pump and a LEAP PAL autosampler. Typical conditions used for HPLC were: mobile phase A=5/94.9/0.1 v/v/v MeOH/water/AcOH and mobile phase B=95/4.9/0.1 v/v/v MeOH/water/AcOH; HPLC column was a Varian MonoChrom C18.3μ for 2×30 mm and 51.1 for 2×50 mm) Instrument response was calibrated by a standard curve over 0.1-2000 ng/mL concentration range, and the lower limit of quantitation was 0.1-2.5 ng/mL. Peak areas were integrated on a Windows 2000 computer using the Sciex program Analyst® (Version 1.4.1). Following peak area integration, the data were exported to the software package (Watson® Non-GLP PROD (Version 7.0.0.01, Thermo Electron Corp., Waltham, Mass.)), where concentrations were determined by a weighted linear regression of peak area versus the nominal concentrations of the calibration standards. Calculations were performed on unrounded numbers. The Watson® Non-GLP PROD software was used to determine precision and accuracy for the calibration standards. Noncompartmental analysis of plasma concentration data was used to generate PK parameters such as clearance (CL, L/h/kg), volume of distribution (Vss, L/kg), area under the curve (AUC, ng·h/mL) and secondary parameters such as half-life (t1/2, h) and oral bioavailability (% F, %). This was done using WinNonlin Enterprise software (Version 5.1.1, from Pharsight Corp., Mountain View, Calif.). References for pharmacokinetic analysis include: Gabrielsson and Weiner (1997) Pharmacokinetic and Pharmacodynamic Data Analysis Concepts and Applications, 2nd ed., Swedish Pharmaceutical Press, Stockholm; Gibaldi and Perrier (1982) Pharmacokinetics, 2nd ed., Marcel Dekker, New York. Rowland and Tozer (1995) Clinical Pharmacokinetics: Concepts and Applications, 3rd ed., Lippincott Williams & Wilkins, Philadelphia.

For another series, the target named is T1, CYP2D6 (Homo sapiens, UniProt P10635).
T1 construct: tissue XenoTech LLC Lot 0610351; host or cells: pooled human liver microsomes
The series is described as follows: CYP2D6 inhibition assay (bufuralol, pooled human liver microsomes). It counts as in vitro ADME. As to conditions: pH 7.4, probe bufuralol (5 μM), test compound 3 μM, human liver microsomes 0.25 mg/mL. How it is done: (§1) Midazolam was obtained from BD Gentest (Waltham, Mass.); 1′ hydroxy midazolam and 1-hydroxy bufuralol maleate were obtained from Ultrafine Chemicals (Manchester, UK); bufuralol HCl, ketoconazole, quinidine, potassium phosphate, and NADPH were obtained from Sigma (St. Louis, Mo.). Test compounds were prepared at 10 mM concentration in DMSO (Mallinckrodt Inc., St. Louis, Mo.). NADPH was prepared at 10 mM concentration in a pH 7.4 buffer (8.3 mg/mL 66.7 mM potassium phosphate). Midazolam was prepared at 1 mM concentration in deionized water (Amgen, Thousand Oaks, Calif.), and bufuralol was prepared at 2 mM concentration in deionized water. A stock solution of ketoconazole was prepared at 37 mM concentration in DMSO, and quinidine was prepared at 500 uM concentration in DMSO. Formic acid in acetonitrile (0.05%, ACN) was used as a quench solution (Sigma-Aldrich, St. Louis, Mo.). All solvents used for LC/MS were of chromatographic grade. Pooled human liver microsomes (Lot 0610351) were purchased from XenoTech LLC, (Lenexa, Kans.).
Pooled human liver microsomes (0.25 mg/mL) were incubated at 37° C. in a phosphate buffer (66.7 mM potassium phosphate at pH 7.4) with the selective CYP2D6 substrate bufuralol at a concentration of 5 μM in the presence and absence of test compound (3 μM). The reaction was started with the addition of NADPH (1 mM final concentration). The reaction was stopped after 10 minutes by addition of formic acid in acetonitrile. 1-Hydroxybufuralol metabolite formation was measured by an HPLC MS detection method (mobile phases for HPLC were: 0.1% AcOH in 5% MeOH, and 0.1% AcOH in 95% MeOH; the HPLC column was an Onyx Monolithic C18 CHO-7645 HPLC column from Phenomenex; Shimadzu LC-10ADVP equipped Biomek FX Liquid handling system and CTC Analytics PAL well auto-sampler; Mass spectrometer: Applied Biosystems API 3000 using Analyst 1.4.1 software). Inhibition was determined by the ratio of the amount of 1-hydroxy bufuralol metabolite formed metabolite in the presence of test compound to the amount of metabolite in the absence of test compound.
(Microsomes from liver hold many membrane-bound enzymes, among them those of drug oxidation.)

The target of a further series is T2, CYP3A4 (Homo sapiens, UniProt P08684).
T2 construct: tissue XenoTech LLC Lot 0610351; host or cells: pooled human liver microsomes
The series is described as follows: CYP3A4 inhibition assay (midazolam, pooled human liver microsomes). It counts as in vitro ADME. The note with it: pH 7.4, probe midazolam (2.5 μM), test compound 3 μM, human liver microsomes 0.1 mg/mL. How it is done:
as §1
Pooled human liver microsomes (0.1 mg/mL) were incubated at 37° C. in a phosphate buffer (66.7 mM potassium phosphate at pH 7.4) with the selective CYP3A substrate midazolam at a concentration of 2.5 μM in the presence and absence of test compound (3 μM). The reaction was started with the addition of NADPH (1 mM final concentration). The reaction was stopped after 10 minutes by addition of formic acid in acetonitrile. 1′-Hydroxymidazolam metabolite formation was measured by an HPLC MS detection method (mobile phases were 0.1% AcOH in 5% MeOH, and 0.1% AcOH in 95% MeOH; the HPLC column was an Onyx Monolithic C18 CHO-7645 HPLC column obtained from Phenomenex; Shimadzu LC-10ADVP equipped Biomek FX Liquid handling system and CTC Analytics PAL well auto-sampler; Mass spectrometer: Applied Biosystems API 3000 using Analyst 1.4.1 software). Inhibition was determined by the ratio of the amount of 1′-hydroxy midazolam metabolite formed in the presence of test compound to the amount of metabolite found in the absence of test compound Inhibition was measured relative to the rate of formation of 1′-hydroxy midazolam incubated at 2.5 μM without test compound.

T2 sequence (P08684 whole entry): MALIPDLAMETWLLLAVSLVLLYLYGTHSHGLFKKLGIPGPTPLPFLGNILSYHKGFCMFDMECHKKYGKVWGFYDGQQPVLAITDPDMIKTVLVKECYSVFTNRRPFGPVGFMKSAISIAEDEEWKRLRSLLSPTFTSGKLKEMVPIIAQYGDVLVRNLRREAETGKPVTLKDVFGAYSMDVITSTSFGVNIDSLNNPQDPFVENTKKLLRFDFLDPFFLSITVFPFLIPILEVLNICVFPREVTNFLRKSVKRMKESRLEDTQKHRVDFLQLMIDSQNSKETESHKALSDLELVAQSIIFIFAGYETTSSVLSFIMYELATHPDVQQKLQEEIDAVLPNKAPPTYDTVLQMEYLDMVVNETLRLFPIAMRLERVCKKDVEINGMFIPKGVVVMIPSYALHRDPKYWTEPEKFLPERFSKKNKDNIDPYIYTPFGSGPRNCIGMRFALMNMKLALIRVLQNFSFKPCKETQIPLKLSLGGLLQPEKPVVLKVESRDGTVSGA
T1 sequence (P10635 whole entry): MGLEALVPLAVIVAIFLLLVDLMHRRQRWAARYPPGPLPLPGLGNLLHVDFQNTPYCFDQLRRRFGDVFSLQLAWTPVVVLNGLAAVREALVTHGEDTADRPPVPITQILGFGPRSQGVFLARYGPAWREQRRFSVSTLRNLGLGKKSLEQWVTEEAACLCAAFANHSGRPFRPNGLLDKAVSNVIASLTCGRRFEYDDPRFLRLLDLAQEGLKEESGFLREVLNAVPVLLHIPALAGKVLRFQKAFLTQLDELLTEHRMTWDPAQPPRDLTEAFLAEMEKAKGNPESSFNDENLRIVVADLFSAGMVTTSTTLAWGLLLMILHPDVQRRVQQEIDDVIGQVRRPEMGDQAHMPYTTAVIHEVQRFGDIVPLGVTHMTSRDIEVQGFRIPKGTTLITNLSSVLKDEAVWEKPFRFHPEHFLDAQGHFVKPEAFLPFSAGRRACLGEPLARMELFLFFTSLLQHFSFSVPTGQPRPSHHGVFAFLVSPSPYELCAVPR

In turn, `N[C@H](CNc1ncc(-c2ccc3cnccc3c2)s1)CN1CCC(C(F)(F)F)CC1` [Comparative Example 25′, reference compound] registered an FPO in series [1] (Table 5, PO 5 mg/kg, IV 2 mg/kg) of 146%. For the same molecule, the “Fpo (%)” value in series [1] (Table 6, PO 5 mg/kg, IV 2 mg/kg) was determined as 65%. For the same molecule, the clearance in series [1] (male, Sprague-Dawley, plasma, IV 2 mg/kg) was 85.6 mL/min/kg. The AUC(0-t) in series [1] (male, Sprague-Dawley, plasma, IV 2 mg/kg, read-out: IV AUClast) was 359 ng·h/mL; in series [1] (male, Sprague-Dawley, plasma, PO 5 mg/kg, read-out: Oral AUClast), 1310 ng·h/mL. The Cmax (in general, the highest concentration seen after dosing) in series [1] (male, Sprague-Dawley, plasma, IV 2 mg/kg, read-out: IV Cmax) turned out to be 284 ng/mL; in series [1] (male, Sprague-Dawley, plasma, PO 5 mg/kg, read-out: Oral Cmax) it was 153 ng/mL. The Vd in series [1] (male, Sprague-Dawley, plasma, IV 2 mg/kg, read-out: Vss) was found to be 8.78 L/kg. Besides, the inhibition (usually how much of the control response was suppressed) at 10 min, 3 μM at CYP2D6 is 81%; against CYP3A4 it was 94%.
